Data published in patent US20240050560A1, “SELF-SUSTAINED RELEASE IMMUNE ADJUVANT SUSPENSION, PREPARATION METHOD THEREFOR, AND USE THEREOF” (priority 2020, published 2024).
Where a name gives a salt, the structure may show the parent alone.

Columns and labels:
[1] = 72 h after intratumoral injection, 6 mg/kg, CT26 mice
Method: Experimental method: Mice were transplanted with mouse colon cancer (CT26) tumor on their backs, and randomly divided to 3 groups with 3 mice in each group for the study of drug distribution behavior. • Group 1: The mice were intratumorally injected with the micromolecule imiquimod hydrochloride with an injection dose of 6 mg/kg; • Group 2: The mice were intratumorally injected with imiquimod nano-particles (with average particle size of about 100 nm) encapsulated with polylactic-glycolic acid copolymer (PLGA) with an injection dose of 6 mg/kg; and • Group 3: The mice were intratumorally injected with imiquimod microparticles (the present formulation) with an injection dose of 6 mg/kg.

in vivo [2] = conditions: mouse, whole blood, 6 mg/kg
Method: Water-insoluble R837 powder was prepared into microparticles with a particle size of 1-3 microns, which were intratumorally injected and then monitored for the pharmacokinetics and intratumoral retention time.
Experimental method: Mice were transplanted with mouse colon cancer (CT26) tumor on their backs, and randomly divided to 3 groups with 3 mice in each group for the pharmacokinetic study.
Group 1: The mice were intratumorally injected with micromolecule imiquimod hydrochloride with an injection dose of 6 mg/kg.
Group 2: The mice were intratumorally injected with imiquimod/PLGA nano-particles (with an average particle size of about 100 nm) with an injection dose of 6 mg/kg.
Group 3: The mice were intratumorally injected with imiquimod microparticles (the present formulation) with an injection dose of 6 mg/kg.

in vivo [3] = conditions: mouse, whole blood
Excerpt: Mice were inoculated with CT26 tumor cells on their back to establish a CT26 subcutaneous tumor model of mice. Mice with the same tumor size were equally divided to 3 groups with 3 mice in each group.

tumor cells = assay: Micron-sized imiquimod suspension in combination with ethanol ablation, subcutaneous tumor model; format: in vivo, mice; conditions: imiquimod suspension 12 mg/mL peritumoral; absolute ethanol 30 μL intratumoral
Excerpt: First, a subcutaneous tumor model in mice was established. In particular, mice were inoculated with tumor cells on their back. Once the tumors grew to a volume of 100 mm^3, the mice were randomly divided into 5 groups with 5 mice in each group.
The mice were monitored for the changes in tumor volumes, and the curves of tumor growth were plotted.

[4] = Platinum in blood and organs (ICP-MS) after intratumoral oxaliplatin with or without imiquimod suspension; conditions: platinum in blood after intratumoral injection
Excerpt: Mice were inoculated with colon cancer (CT26) tumor cells on the back of the tumor in mice to establish a subcutaneous tumor model in mice.

[5] = system: colon cancer (CT26) tumors; assay: Oxaliplatin in combination with micron-sized imiquimod suspension, two-sided tumor model; format: in vivo, mice; conditions: Day 15 after treatment; 30 μL intratumoral; oxaliplatin 4 mg/mL, imiquimod 6 mg/mL
Method: Mice were inoculated with different amounts of colon cancer (CT26) tumors on both sides of the back in mice (the inoculated amount on the left side was ⅕ of that on the right side) to establish a subcutaneous two-sided tumor model, wherein the tumor on the right side was deemed an in-situ tumor, and that on the left right was deemed a distal tumor. Once the in-situ tumors reached a size of about 100 mm^3, the mice were randomly divided into 4 groups, which were treated respectively.
On Day 1 of the treatment, the in-situ tumor was administered by intratumoral injection, wherein the concentration of oxaliplatin was 4 mg/mL, and the concentration of imiquimod was 6 mg/mL. After administration, the tumor volume in mice was recorded to plotted a growth curve of ice.

mouse colon CT26 tumor = assay: Oxaliplatin chemotherapy combined with imiquimod micro-formulation, in-situ and distal tumor growth; format: in vivo, mice; conditions: intratumoral injection, chemotherapeutic alone
Method: The length and width of the tumor in mice were regularly measured, and the volume of tumor was calculated as follows: (length×(width) 2)/2.

## CC(C)Cn1cnc2c(N)nc3ccccc3c21 [Micromolecule imiquimod hydrochloride, imiquimod hydrochloride]
[1]
  Retention of imiquimod in tumor and main organs (FIG. 3): extremely low overall retention
In vivo [2]
  half-life: 12 h
At 48 h and 72 h after intratumoral injection 6 mg/kg
  Blood concentration of drug: below the limit of detection
Intratumoral injection 6 mg/kg, CT26 mice, average of 3
  Average Retention Time: 11 h
In vivo [3]
  AUC: 140 ng·h/mL
  Cmax: 17.4 ng/mL
  Tmax: 0.5 h
  half-life: 7.7 h

## CCO [absolute ethanol, ethanol]
Tumor cells
  Tumor growth / tumor volumes (FIG. 14): not highly different from those of the control group

## O=C1[O][Pt]2([NH][C@@H]3CCCC[C@H]3[NH]2)[O]C1=O [OXA, oxaliplatin]
[4]
  Tmax (H): 3 H
[5]
  Tumor Inhibition Rate, Distant tumor: 41.87%
  Tumor Inhibition Rate, In-situ tumor: 69.56%
Mouse colon CT26 tumor
  Growth of distal tumors (FIG. 11): does not produce significant inhibitory effect
  Growth of in-situ tumors (FIG. 10): can inhibit the growth of in-situ tumors
